What was measured:
[1] = molecular target: T1, Ev1 protein (Homo sapiens, UniProt Q9UI08); assay: Influence of low molecular weight compounds on single-stranded DNA catenation activity of the Ev1 protein; type: biochemical; details: compound 1, 5, 10 and 20 μM; 4 μM Ev1 protein; 20 μM φ×174 single-stranded DNA; 37° C., 1 hour
T1 construct: in accordance with the protocols used in purification of the entire-length Ev1 protein; 6xHis (N, cleaved yes); made in house; host or cells: E. coli BL21 (DE3) codon plus-RP, pET15b vector
T1 sequence (Q9UI08 1-418 isoform Q9UI08-2): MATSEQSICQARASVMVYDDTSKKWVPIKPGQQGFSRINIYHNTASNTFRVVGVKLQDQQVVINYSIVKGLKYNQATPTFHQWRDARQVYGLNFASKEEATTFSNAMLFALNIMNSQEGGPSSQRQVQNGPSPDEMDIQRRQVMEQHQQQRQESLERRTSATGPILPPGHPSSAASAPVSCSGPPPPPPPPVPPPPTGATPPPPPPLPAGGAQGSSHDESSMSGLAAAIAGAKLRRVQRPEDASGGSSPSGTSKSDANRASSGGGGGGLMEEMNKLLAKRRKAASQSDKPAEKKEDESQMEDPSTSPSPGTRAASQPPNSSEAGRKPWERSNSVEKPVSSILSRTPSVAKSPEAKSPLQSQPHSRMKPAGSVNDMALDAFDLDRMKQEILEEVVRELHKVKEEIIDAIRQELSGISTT
Procedure: With regard to the influence of each compound on the catenation activity of the Ev1 protein (FIGS. 14a, 15a, 16, 17a, and 18a), each compound in final concentrations of 1, 5, 10, and 20 μM, a φ×174 single-stranded DNA in a final concentration of 20 μM, and an Ev1 protein in a final concentration of 4 μM were added to 10 μl of a reaction solution (20 mM HEPES, 1 mM DTT, 100 μg/ml BSA, and 1 mM MgCl2). The obtained mixture was reacted at 37° C. for 1 hour. After completion of the reaction, 2 μl of a PK solution (0.2% SDS and 1.3 mg/ml proteinase K) was added to the reaction solution, and the obtained mixture was then reacted at 37° C. for 15 minutes. Thereafter, the reaction product was electrophoresed on a 0.8% HGT agarose gel, and DNA was then detected with SYBR Gold.

[2] = molecular target: T1, Ev1 protein; assay: Gel shift method, single-stranded DNA binding activity of the Ev1 protein in the presence of compounds; details: compound 1, 5, 10 and 20 μM; 0.3 μM Ev1 protein; 20 μM φ×174 single-stranded DNA; 37° C., 15 minutes
Procedure: Moreover, in a gel shift method involving single-stranded DNA binding activity (FIGS. 14b, 15b, 16b, 17b, and 18b), each compound in final concentrations of 1, 5, 10, and 20 μM, a φ×174 single-stranded DNA in a final concentration of 20 μM, and an Ev1 protein in a final concentration of 0.3 μM were added to 20 μl of a reaction solution (20 mM HEPES, 1 mM DTT, 100 μg/ml BSA, and 1 mM MgCl2). The obtained mixture was reacted at 37° C. for 15 minutes. Thereafter, the reaction product was electrophoresed on a 0.8% HGT agarose gel, and DNA was then detected with ethidium bromide.

Row | Compound | effect on single-stranded DNA catenation activity of the Ev1 protein [1] | influence on activity of the Ev1 protein to bind to single-stranded DNA (gel shift) [2]
1 | Nc1ccc2c(=S)c3ccccc3[nH]c2c1 [3-ATA, 3-amino-9-thio(10H)-acridone] | inhibits the single-stranded DNA catenation activity of the Ev1 protein | does not change the single-stranded DNA binding activity of the Ev1 protein
2 | O=S(=O)(O)c1cc(N=C=S)ccc1C=Cc1ccc(N=C=S)cc1S(=O)(=O)O [DIDS] | inhibits the single-stranded DNA catenation activity of the Ev1 protein | inhibits the single-stranded DNA binding activity of the Ev1 protein
3 | CC[C@@]1(O)C[C@H](O[C@H]2C[C@H](N(C)C)[C@H](O[C@H]3C[C@H](O)[C@H](O[C@H]4CCC(=O)[C@H](C)O4)[C@H](C)O3)[C@H](C)O2)c2c(cc3c(c2O)C(=O)c2c(O)cccc2C3=O)[C@H]1C(=O)OC [aclarubicin] | inhibits the activity of an Ev1 protein to catenate single-stranded DNA molecules | does not change the activity of the Ev1 protein to bind to circular single-stranded DNA
4 | Cc1cc(N)c2ccccc2[n+]1CCCCCCCCCC[n+]1c(C)cc(N)c2ccccc21 [dequalinium, dequalinium chloride] | inhibits the single-stranded DNA catenation activity of the Ev1 protein | changes the binding manner of the Ev1 protein that binds to a single-stranded DNA
5 | β-rubromycin | inhibits the single-stranded DNA catenation activity of the Ev1 protein | changes the binding manner of the Ev1 protein that binds to a single-stranded DNA

— US20100068766A1, “COMPOSITION FOR CLEAVING AND/OR CONNECTING SINGLE STRAND DNA” (WASEDA UNIVERSITY, priority 2007, published 2010)
